Test results published in patent US9562043B2 (EA Pharma Co., Ltd., priority 2012, dated 2017).

molecular target: T1, human TRPA1 (Homo sapiens, UniProt O75762); experiment: Measurement of TRPA1 antagonist activity (intracellular calcium increase, FLIPR); format: cell-based; conditions: 293T cells transfected with human TRPA1 expression plasmid, allylisothiocyanate 20 μM stimulation, calcium fluorescence, read-out: antagonism hTRPA1
T1 construct: host or cells: human embryonic kidney-derived 293T cells, transient transfection with pcDNA3.1/zeo(+) plasmid
Source text: Measurement of TRPA1 Antagonist Activity
Human TRPA1 Expression Plasmid
As cDNA encoding human TRPA1 (GenBank accession No. […]), a commercially available product was purchased (manufactured by Kazusa DNA Research Institute, clone No.: pFN21AB7348, item No.: FHC07217). Using this as a template, full-length human TRPA1 gene was amplified using the primer sequences shown below, by reaction using DNA polymerase (manufactured by Stratagene, trade name: PfuUltra High-Fidelity DNA Polymerase).
A recognition site (underlined) of restriction enzyme HindIII was added to the 5′ side, and XbaI site (underlined) was added to the 3′ side, and GTT of the template sequence was changed to termination codon TAG (bold). The obtained double stranded DNA was enzyme-digested with HindIII and XbaI, and introduced into a multicloning site of expression plasmid pcDNA3.1/zeo(+) (manufactured by Invitrogen) to give a human TRPA1 expression plasmid.
Human embryonic kidney-derived 293T cells were cultured in Dulbecco's Modified Eagle Medium containing 10% fetal bovine serum, 10 unit penicillin, and 10 μg streptomycin, plated on a petri dish having a diameter of 10 cm at 3×10^6 cells, and cultured for 24 hr. A medium containing a reduced amount of serum (manufactured by Invitrogen, trade name: OPTI-MEM, 600 μL), a gene insertion reagent (manufactured by Mirus Bio, trade name: Mirus TransIT-293, 18 μL), and human TRPA1 expression plasmid (6 μg) were mixed, the total amount of the mixture was added to the cells on the petri dish to allow for gene transfer. The cells were recovered about 8 hr later, plated on a poly-D-lysine coated 384 well black/clear bottom plate at 7,500-12,000 cells/well, and cultured overnight.
Measurement of Intracellular Calcium Increase
The 384 well plate was recovered, and the medium was removed. A calcium-bonded fluorescent indicator (manufactured by Molecular Device, trade name: Calcium4 Assay Kit, 40 μL) dissolved in assay buffer (1×HBSS, 20 mM HEPES, pH 7.2) was added, and the cells were stained in a 37° C. incubator for 1 hr. The cells were taken out at room temperature and left standing for 15 min or more. A test substance (10 μL) was added by a 384 well type dispenser, and the mixture was incubated at room temperature for 10 min. Then, allylisothiocyanate (12.5 μL) at a final concentration of 20 μM was added by a fluorescence imaging plate reader (manufactured by Molecular Device, FLIPR), and changes in the relative fluorescence intensity were measured for 5 min.
Test Substance Preparation
The test substance was dissolved in dimethyl sulfoxide and serially diluted with an assay buffer containing 0.1% bovine serum albumin (1×HBSS, 20 mM HEPES, pH 7.2) to a 5-fold concentration of the evaluation concentration. Allylisothiocyanate, which is a known TRPA1 activator, was dissolved in dimethyl sulfoxide to 100 mM, and further diluted 5-fold (100 μM) of the final concentration, like the test substance.
Calculation of Antagonist Activity
Under the test substance-free conditions, the maximum variation range of the fluorescence intensity before and after allylisothiocyanate stimulation was defined to be 100% activity rate, and the variation range before and after buffer stimulation was defined as 0% activity rate. The activity rate on addition of the test substance was determined, and the numerical value obtained by subtracting the activity rate from 100 was defined to be an inhibitory rate. IC50, which is the concentration of the test substance necessary for reaching the 50% inhibitory rate, was calculated from the sigmoid approximate curve by a spreadsheet software Excel-Fit.

T1 sequence (O75762 whole entry): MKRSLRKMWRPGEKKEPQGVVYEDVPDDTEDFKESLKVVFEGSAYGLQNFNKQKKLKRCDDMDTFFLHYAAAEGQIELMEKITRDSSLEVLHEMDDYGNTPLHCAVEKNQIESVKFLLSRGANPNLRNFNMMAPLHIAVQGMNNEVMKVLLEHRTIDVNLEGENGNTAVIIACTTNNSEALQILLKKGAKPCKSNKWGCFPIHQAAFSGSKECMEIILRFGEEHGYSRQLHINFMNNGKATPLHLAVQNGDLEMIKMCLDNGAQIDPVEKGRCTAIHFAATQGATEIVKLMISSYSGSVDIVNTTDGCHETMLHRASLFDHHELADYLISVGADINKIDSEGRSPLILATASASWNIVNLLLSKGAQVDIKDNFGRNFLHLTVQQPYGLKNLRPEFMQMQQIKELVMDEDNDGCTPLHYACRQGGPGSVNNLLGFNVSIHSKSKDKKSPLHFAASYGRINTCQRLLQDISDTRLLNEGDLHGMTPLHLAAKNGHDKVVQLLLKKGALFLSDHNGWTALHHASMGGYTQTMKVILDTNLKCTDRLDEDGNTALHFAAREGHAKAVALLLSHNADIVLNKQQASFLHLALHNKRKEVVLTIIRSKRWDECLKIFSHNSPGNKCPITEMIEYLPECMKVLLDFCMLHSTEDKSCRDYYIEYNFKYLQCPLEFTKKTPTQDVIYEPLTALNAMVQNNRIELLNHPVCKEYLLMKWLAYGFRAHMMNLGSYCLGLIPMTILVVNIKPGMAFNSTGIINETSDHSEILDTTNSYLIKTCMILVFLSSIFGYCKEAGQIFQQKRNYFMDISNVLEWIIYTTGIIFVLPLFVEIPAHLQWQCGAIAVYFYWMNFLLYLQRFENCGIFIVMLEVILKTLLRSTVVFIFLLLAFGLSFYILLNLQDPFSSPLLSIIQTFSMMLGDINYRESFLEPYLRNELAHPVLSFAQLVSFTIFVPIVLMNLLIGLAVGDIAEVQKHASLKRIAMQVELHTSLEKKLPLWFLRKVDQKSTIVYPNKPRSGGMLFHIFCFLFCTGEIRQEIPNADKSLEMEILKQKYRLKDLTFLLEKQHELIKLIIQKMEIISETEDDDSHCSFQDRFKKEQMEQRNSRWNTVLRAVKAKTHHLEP

Point of comparison: `C[C@@]1(C(=O)NCc2nc(-c3ccc(C(F)(F)F)cc3)cs2)CCCN1S(=O)(=O)c1ccc(Cl)s1` [compound 33, (2S)-1-(5-chlorothiophene-2-sulfonyl)-N-({4-[4-(trifluoromethyl)phenyl]-thiazol-2-yl}methyl)-2-methylpyrrolidine-2-carboxamide], IC50 740 nM. Against it:
- O=C(NCc1nc(-c2ccc(C(F)(F)F)cc2)cs1)[C@@H]1CCCN1S(=O)(=O)c1ccc(F)c(F)c1 [compound 51, (2S)-1-(3,4-difluorophenyl)sulfonyl-N-({4-[4-(trifluoromethyl)-phenyl)thiazol-2-yl}methyl)pyrrolidine-2-carboxamide] — 12-fold lower, 60 nM
- O=C(NCc1nc(-c2ccc(C(F)(F)F)cc2)cs1)[C@@H]1CCCN1S(=O)(=O)c1ccsc1 [compound 49, (2S)-1-(3-thienylsulfonyl)-N-({4-[4-(trifluoromethyl)-phenyl)thiazol-2-yl}methyl)-pyrrolidine-2-carboxamide] — 2.2-fold lower, 340 nM
- O=C(NCc1nc(-c2ccc(C(F)(F)F)cc2)cs1)[C@@H]1CCN1S(=O)(=O)c1ccc(Cl)s1 [compound 31, (2S)-1-(5-chlorothiophene-2-sulfonyl)-N-({4-[4-(trifluoromethyl)phenyl]-thiazol-2-yl}methyl)azetidine-2-carboxamide] — within 1.5-fold, 750 nM
- Cc1sc(-c2ccc(C(F)(F)F)cc2)nc1CNC(=O)[C@@H]1CCCN1S(=O)(=O)c1ccc(Cl)s1 [compound 45, (2S)-1-(5-chlorothiophene-2-sulfonyl)-N-({5-methyl-2-[4-(trifluoromethyl)phenyl]-thiazol-4-yl}methyl)-pyrrolidine-2-carboxamide] — 6.7-fold lower, 110 nM
- C[C@H](NC(=O)[C@@H]1CCCN1S(=O)(=O)c1ccc(Cl)s1)c1nc(-c2ccc(C(F)(F)F)cc2)cs1 [compound 10, (2S)-1-(5-chlorothiophene-2-sulfonyl)-N-[(1S)-1-{4-[4-(trifluoromethyl)phenyl]-thiazol-2-yl}ethyl]-pyrrolidine-2-carboxamide] — 2.3-fold lower, 320 nM
- O=C(NCc1nc(-c2ccc(C(F)(F)F)cc2)cs1)[C@@H]1CSCN1S(=O)(=O)c1ccc(Cl)s1 [compound 29, (4R)-3-(5-chlorothiophene-2-sulfonyl)-N-({4-[4-(trifluoromethyl)phenyl]-thiazol-2-yl}methyl)-1,3-thiazolidine-4-carboxamide] — within 1.5-fold, 580 nM
- C[C@@]1(C(=O)NCc2nc(-c3ccc(OC(F)(F)F)cc3)cs2)CCCN1S(=O)(=O)c1ccc(Cl)s1 [compound 34, (2S)-1-(5-chlorothiophene-2-sulfonyl)-N-({4-[4-(trifluoromethoxy)phenyl]-thiazol-2-yl}methyl)-2-methylpyrrolidine-2-carboxamide] — within 1.5-fold, 890 nM
- O=C(NCc1nc(-c2cccc(C(F)(F)F)c2)cs1)[C@@H]1C=CCN1S(=O)(=O)c1ccc(Cl)s1 [compound 21, (2S)-1-(5-chlorothiophene-2-sulfonyl)-N-({4-[3-(trifluoromethyl)phenyl]-thiazol-2-yl}methyl)-3,4-didehydropyrrolidine-2-carboxamide] — within 1.5-fold, 710 nM
- O=C(NCc1csc(-c2ccc(C(F)(F)F)cc2)n1)[C@@H]1CCCN1S(=O)(=O)c1ccc(Cl)s1 [compound 14, (2S)-1-(5-chlorothiophene-2-sulfonyl)-N-({2-[4-(trifluoromethyl)phenyl]-thiazol-4-yl}methyl)-pyrrolidine-2-carboxamide] — 3.7-fold lower, 200 nM
- O=C(NCc1ccc(-c2ccc(OC(F)(F)F)cc2)s1)[C@@H]1CCCN1S(=O)(=O)c1ccc(Cl)s1 [compound 44, (2S)-1-(5-chlorothiophene-2-sulfonyl)-N-({5-[4-(trifluoro-methoxy)phenyl]-2-thienyl}methyl)pyrrolidine-2-carboxamide] — 6.2-fold lower, 120 nM
- O=C(NCc1nc(-c2ccc(C(F)(F)F)cc2)cs1)[C@@H]1CCCN1S(=O)(=O)c1ccc(Br)s1 [compound 39, (2S)-1-(5-bromothiophene-2-sulfonyl)-N-({4-[4-(trifluoromethyl)phenyl]thiazol-2-yl}methyl)pyrrolidine-2-carboxamide] — 3.7-fold lower, 200 nM
- O=C(NCc1nc(-c2ccc(C(F)(F)F)cc2)cs1)[C@@H]1CCCN1S(=O)(=O)c1cccs1 [compound 36, (2S)-1-(thiophene-2-sulfonyl)-N-({4-[4-(trifluoromethyl)-phenyl]thiazol-2-yl}methyl)pyrrolidine-2-carboxamide] — 2.4-fold higher, 1790 nM
- O=C(NCc1nc(-c2ccc(OC(F)(F)F)c(F)c2)cs1)[C@@H]1C=CCN1S(=O)(=O)c1ccc(Cl)s1 [compound 22, (2S)-1-(5-chlorothiophene-2-sulfonyl)-N-({4-[3-fluoro-4-(trifluoromethoxy)phenyl]-thiazol-2-yl}methyl)-3,4-didehydropyrrolidine-2-carboxamide] — 6.7-fold lower, 110 nM
- O=C(NCc1nc(-c2ccc(C(F)(F)F)cc2)cs1)[C@@H]1C=CCN1S(=O)(=O)c1ccc(Cl)s1 [compound 18, (2S)-1-(5-chlorothiophene-2-sulfonyl)-N-({4-[4-{trifluoromethyl)phenyl]-thiazol-2-yl}methyl)-3,4-didehydropyrrolidine-2-carboxamide] — 4.4-fold lower, 170 nM
- O=C(NCc1nc(-c2ccc(C(F)(F)F)cc2)cs1)[C@@H]1CCCN1S(=O)(=O)c1ccc(F)c(Cl)c1 [compound 52, (2S)-1-(3-chloro-4-fluoro-phenyl)sulfonyl-N-({4-[4-(trifluoromethyl)phenyl]-thiazol-2-yl}methyl)pyrrolidine-2-carboxamide] — 2.6-fold lower, 290 nM
- O=C(NCc1nc(-c2ccc(Cl)cc2)cs1)[C@@H]1C=CCN1S(=O)(=O)c1ccc(Cl)s1 [compound 19, (2S)-1-(5-chlorothiophene-2-sulfonyl)-N-({4-[4-(chloro)phenyl]thiazol-2-yl}methyl)-3,4-didehydropyrrolidine-2-carboxamide] — within 1.5-fold, 560 nM
- O=C(NCc1nc(-c2ccc(C(F)(F)F)cc2)cs1)[C@@H]1CCCN1S(=O)(=O)c1ccc(Br)cc1 [compound 42, (2S)-1-(4-bromobenzene-2-sulfonyl)-N-({4-[4-(trifluoro-methyl)phenyl]thiazol-2-yl)-methyl)pyrrolidine-2-carboxamide] — 2-fold higher, 1490 nM
- O=C(NCc1nc(-c2ccccc2)cs1)[C@@H]1CCCN1S(=O)(=O)c1ccc(Cl)s1 [compound 4, (2S)-1-(5-chlorothiophene-2-sulfonyl)-N-{(4-phenylthiazol-2-yl)methyl}pyrrolidine-2-carboxamide] — within 1.5-fold, 760 nM
- O=C(NCc1nc(-c2ccc(OC(F)(F)F)cc2)co1)[C@@H]1CCCN1S(=O)(=O)c1ccc(Cl)s1 [compound 13, (2S)-1-(5-chlorothiophene-2-sulfonyl)-N-({4-[4-(trifluoromethoxy)phenyl]-oxazol-2-yl}methyl)-pyrrolidine-2-carboxamide] — 6.2-fold lower, 120 nM
- C[C@H](NC(=O)[C@]1(C)CCCN1S(=O)(=O)c1ccc(Cl)s1)c1nc(-c2ccc(OC(F)(F)F)cc2)cs1 [compound 35, (2S)-1-(5-chlorothiophene-2-sulfonyl)-N-[(1S)-1-{4-[4-(trifluoromethoxy)phenyl]-thiazol-2-yl}ethyl]-2-methylpyrrolidine-2-carboxamide] — 3.4-fold higher, 2500 nM
- O=C(NCc1nc(-c2ccc(C(F)(F)F)cc2)cs1)[C@@H]1CCCN1S(=O)(=O)c1ccc(F)cc1 [compound 37] — within 1.5-fold, 1000 nM
